Test results from US10894784B2, “Heteroarylbenzimidazole compounds” (BAYER PHARMA AKTIENGESELLSCHAFT, priority 2015, dated 2021).

target: TBK1 (Homo sapiens (Human), UniProt Q9UHD2); experiment: TBK1 low ATP kinase assay (in vitro assay 1); type: biochemical; settings: in vitro assay 1, read-out: TBK1 low ATP kinase assay IC50
Sequence (Q9UHD2 whole entry): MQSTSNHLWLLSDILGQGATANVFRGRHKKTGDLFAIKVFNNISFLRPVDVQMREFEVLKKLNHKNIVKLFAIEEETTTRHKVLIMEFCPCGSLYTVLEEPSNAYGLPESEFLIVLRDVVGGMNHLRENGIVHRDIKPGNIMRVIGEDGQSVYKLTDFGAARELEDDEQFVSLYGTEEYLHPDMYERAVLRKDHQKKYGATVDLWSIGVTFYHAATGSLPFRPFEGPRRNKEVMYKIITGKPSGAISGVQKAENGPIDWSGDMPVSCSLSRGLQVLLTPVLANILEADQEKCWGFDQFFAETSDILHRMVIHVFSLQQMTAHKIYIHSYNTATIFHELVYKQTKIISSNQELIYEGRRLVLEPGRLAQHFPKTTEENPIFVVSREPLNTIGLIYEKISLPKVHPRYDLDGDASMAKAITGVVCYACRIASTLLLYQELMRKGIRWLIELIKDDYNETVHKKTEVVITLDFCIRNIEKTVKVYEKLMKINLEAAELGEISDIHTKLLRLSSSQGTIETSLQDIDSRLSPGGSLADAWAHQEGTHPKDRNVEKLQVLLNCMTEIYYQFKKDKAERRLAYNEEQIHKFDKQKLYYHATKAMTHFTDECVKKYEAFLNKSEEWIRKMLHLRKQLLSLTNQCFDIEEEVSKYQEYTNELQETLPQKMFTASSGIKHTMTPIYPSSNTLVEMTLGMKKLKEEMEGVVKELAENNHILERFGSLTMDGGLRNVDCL

IC50	Compound
15 nM	CCN(CC)c1cc(-c2ccc3nc(Nc4cc(CN5CCN(C(=O)CC(F)(F)F)CC5)ccn4)[nH]c3c2)ncn1 [Example 155.02, 1-(4-{[2-({6-[6-(diethylamino)pyrimidin-4-yl]-1H-benzimidazol-2-yl}amino)pyridin-4-yl]methyl}piperazin-1-yl)-3,3,3-trifluoropropan-1-one]
17 nM	CCN(CC)c1cc(-c2ccc3nc(Nc4cc(CN5CCN(C(=O)C6CC6)CC5)ccn4)[nH]c3c2)ncn1 [Example 155.03, cyclopropyl(4-{[2-({6-[6-(diethylamino)pyrimidin-4-yl]-1H-benzimidazol-2-yl}amino)pyridin-4-yl]methyl}piperazin-1-yl)methanone]
38 nM	CN(c1cc(-c2ccc3nc(Nc4cc(CN5CCN(C(=O)OC(C)(C)C)CC5)ccn4)[nH]c3c2)ncn1)C1CCC1 [Example 156.01, tert-butyl 4-({2-[(6-{6-[cyclobutyl(methyl)amino]pyrimidin-4-yl}-1H-benzimidazol-2-yl)amino]pyridin-4-yl}methyl)piperazine-1-carboxylate]
9.3 nM	CN(c1cc(-c2ccc3nc(Nc4cc(CN5CCN(C(=O)CC(F)(F)F)CC5)ccn4)[nH]c3c2)ncn1)C1CCC1 [Example 156.02, 1-[4-({2-[(6-{6-[cyclobutyl(methyl)amino]pyrimidin-4-yl}-1H-benzimidazol-2-yl)amino]pyridin-4-yl}methyl)piperazin-1-yl]-3,3,3-trifluoropropan-1-one]
19 nM	CN(c1cc(-c2ccc3nc(Nc4cc(CN5CCN(C(=O)C6CC6)CC5)ccn4)[nH]c3c2)ncn1)C1CCC1 [Example 156.03, [4-({2-[(6-{6-[cyclobutyl(methyl)amino]pyrimidin-4-yl}-1H-benzimidazol-2-yl)amino]pyridin-4-yl}methyl)piperazin-1-yl](cyclopropyl)methanone]
25 nM	CN(c1cc(-c2ccc3nc(Nc4cc(CN5CCN(C(=O)OC(C)(C)C)CC5)ccn4)[nH]c3c2)ncn1)C1CC1 [Example 157.01, tert-butyl 4-({2-[(6-{6-[cyclopropyl(methyl)amino]pyrimidin-4-yl}-1H-benzimidazol-2-yl)amino]pyridin-4-yl}methyl)piperazine-1-carboxylate]
8.9 nM	CN(c1cc(-c2ccc3nc(Nc4cc(CN5CCN(C(=O)CC(F)(F)F)CC5)ccn4)[nH]c3c2)ncn1)C1CC1 [Example 157.02, 1-[4-({2-[(6-{6-[cyclopropyl(methyl)amino]pyrimidin-4-yl}-1H-benzimidazol-2-yl)amino]pyridin-4-yl}methyl)piperazin-1-yl]-3,3,3-trifluoropropan-1-one]
7.6 nM	CN(c1cc(-c2ccc3nc(Nc4cc(CN5CCN(C(=O)C6CC6)CC5)ccn4)[nH]c3c2)ncn1)C1CC1 [Example 157.03, cyclopropyl[4-({2-[(6-{6-[cyclopropyl(methyl)amino]pyrimidin-4-yl}-1H-benzimidazol-2-yl)amino]pyridin-4-yl}methyl)piperazin-1-yl]methanone]
160 nM	CC(C)(C)OC(=O)N1CCN(Cc2ccnc(Nc3nc4ccc(-c5cc(OCC6(C(F)(F)F)CC6)ncn5)cc4[nH]3)c2)CC1 [Example 158.01, tert-butyl 4-[(2-{[6-(6-{[1-(trifluoromethyl)cyclopropyl]methoxy}pyrimidin-4-yl)-1H-benzimidazol-2-yl]amino}pyridin-4-yl)methyl]piperazine-1-carboxylate]
21 nM	O=C(CC(F)(F)F)N1CCN(Cc2ccnc(Nc3nc4ccc(-c5cc(OCC6(C(F)(F)F)CC6)ncn5)cc4[nH]3)c2)CC1 [Example 158.02, 3,3,3-trifluoro-1-{4-[(2-{[6-(6-{[1-(trifluoromethyl)cyclopropyl]methoxy}pyrimidin-4-yl)-1H-benzimidazol-2-yl]amino}pyridin-4-yl)methyl]piperazin-1-yl}propan-1-one]
13 nM	O=C(C1CC1)N1CCN(Cc2ccnc(Nc3nc4ccc(-c5cc(OCC6(C(F)(F)F)CC6)ncn5)cc4[nH]3)c2)CC1 [Example 158.03, cyclopropyl{4-[(2-{[6-(6-{[1-(trifluoromethyl)cyclopropyl]methoxy}pyrimidin-4-yl)-1H-benzimidazol-2-yl]amino}pyridin-4-yl)methyl]piperazin-1-yl}methanone]
310 nM	CC(C)(C)OC(=O)N1CCN(Cc2ccnc(Nc3nc4ccc(-c5cc(OCC6CCC6)ncn5)cc4[nH]3)c2)CC1 [Example 159.01, tert-butyl 4-{[2-({6-[6-(cyclobutylmethoxy)pyrimidin-4-yl]-1H-benzimidazol-2-yl}amino)pyridin-4-yl]methyl}piperazine-1-carboxylate]
15 nM	O=C(CC(F)(F)F)N1CCN(Cc2ccnc(Nc3nc4ccc(-c5cc(OCC6CCC6)ncn5)cc4[nH]3)c2)CC1 [Example 159.02, 1-(4-{[2-({6-[6-(cyclobutylmethoxy)pyrimidin-4-yl]-1H-benzimidazol-2-yl}amino)pyridin-4-yl]methyl}piperazin-1-yl)-3,3,3-trifluoropropan-1-one]
64 nM	CC(C)Oc1cc(-c2ccc3nc(Nc4cc(CN5CCN(C(=O)OC(C)(C)C)CC5)ccn4)[nH]c3c2)ncn1 [Example 160.01, tert-butyl 4-{[2-({6-[6-(propan-2-yloxy)pyrimidin-4-yl]-1H-benzimidazol-2-yl}amino)pyridin-4-yl]methyl}piperazine-1-carboxylate]
13 nM	CC(C)Oc1cc(-c2ccc3nc(Nc4cc(CN5CCN(C(=O)CC(F)(F)F)CC5)ccn4)[nH]c3c2)ncn1 [Example 160.02, 3,3,3-trifluoro-1-(4-{[2-({6-[6-(propan-2-yloxy)pyrimidin-4-yl]-1H-benzimidazol-2-yl}amino)pyridin-4-yl]methyl}piperazin-1-yl)propan-1-one]
8.5 nM	CC(C)Oc1cc(-c2ccc3nc(Nc4cc(CN5CCN(C(=O)C6CC6)CC5)ccn4)[nH]c3c2)ncn1 [Example 160.03, cyclopropyl(4-{[2-({6-[6-(propan-2-yloxy)pyrimidin-4-yl]-1H-benzimidazol-2-yl}amino)pyridin-4-yl]methyl}piperazin-1-yl)methanone]
7.7 nM	CCOc1cc(-c2ccc3nc(Nc4cc(CN5CCN(C(=O)CC(F)(F)F)CC5)ccn4)[nH]c3c2)ncn1 [Example 161.02, 1-{4-[(2-{[6-(6-ethoxypyrimidin-4-yl)-1H-benzimidazol-2-yl]amino}pyridin-4-yl)methyl]piperazin-1-yl}-3,3,3-trifluoropropan-1-one]
6.7 nM	CCOc1cc(-c2ccc3nc(Nc4cc(CN5CCN(C(=O)C6CC6)CC5)ccn4)[nH]c3c2)ncn1 [Example 161.03, cyclopropyl{4-[(2-{[6-(6-ethoxypyrimidin-4-yl)-1H-benzimidazol-2-yl]amino}pyridin-4-yl)methyl]piperazin-1-yl}methanone]
20 nM	CN(C)c1ncnc(-c2ccc3nc(Nc4cc(CN5CCN(C(=O)CC(F)(F)F)CC5)ccn4)[nH]c3c2)c1F [Example 162.02, 1-(4-{[2-({6-[6-(dimethylamino)-5-fluoropyrimidin-4-yl]-1H-benzimidazol-2-yl}amino)pyridin-4-yl]methyl}piperazin-1-yl)-3,3,3-trifluoropropan-1-one]
19 nM	COc1cc(-c2ccc3nc(Nc4cc(CN5CCN(C(=O)CC(F)(F)F)CC5)ccn4)[nH]c3c2)ncn1 [Example 163.02, 3,3,3-trifluoro-1-{4-[(2-{[6-(6-methoxypyrimidin-4-yl)-1H-benzimidazol-2-yl]amino}pyridin-4-yl)methyl]piperazin-1-yl}propan-1-one]
